Measurements published in PMC4098866 (Bioscience Reports, 2012).
Several values for one entry are separate records, joined by “and”; a condition that tells them apart may be missing. Identical values can stand only once. Like-named read-outs stand apart in the source and are kept apart here.

Legend:
[1] = biological target: N-domain of RPSA (Mus musculus, UniProt P14206); experiment: Summary of ligand binding functions of RPSA domains; set-up: species or system murine; details: read-out: KD (dissociation constants), N-domain; rounded value of the Abstract
[2] = biological target: RPSA 1–295; details: 1–295, E. coli, native, Ind. ELISA, 37 °C; cited from earlier work
[3] = biological target: RPSA 161–180 (synthetic peptide G); details: SPRadio-L, 4 °C; cited from earlier work
[4] = biological target: T1, RPSA-(2–295) (Mus musculus, UniProt P14206); experiment: Competition ELISA, KD between laminin and RPSA derivative; format: binding, murine
[5] = biological target: 67LR; details: cell membrane, denatured, SPRadio-L, cited from earlier work
[6] = biological target: RPSA 1–220; details: 1–220, E. coli, native, Ind. ELISA, 37 °C; cited from earlier work
[7] = biological target: T2, RPSA-(225–295) (Mus musculus, UniProt P14206); experiment: Competition ELISA, KD between laminin and RPSA derivative; format: binding, murine; details: read-out: KD(Laminin), 25°C, buffer C, equilibrium in solution
[8] = biological target: T3, RPSA-(2–209) (Mus musculus, UniProt P14206); experiment: as above; format: binding, murine; details: read-out: KD(Laminin), 25°C, buffer C, equilibrium in solution
[9] = biological target: T4, RPSA-(2–220) (Mus musculus, UniProt P14206); experiment: as above; format: binding, murine; details: read-out: KD(Laminin), 25°C, buffer C, equilibrium in solution
[10] = biological target: C-domain of RPSA (Mus musculus, UniProt P14206); experiment: Summary of ligand binding functions of RPSA domains; set-up: species or system murine; details: read-out: KD (dissociation constants), C-domain; rounded value of the Abstract
[11] = biological target: T5, RPSA-(210–295) (Mus musculus, UniProt P14206); experiment: Competition ELISA, KD between laminin and RPSA derivative; format: binding, murine; details: read-out: KD(Laminin), 25°C, buffer C, equilibrium in solution
[12] = biological target: T2, RPSA-(225–295); experiment: Indirect ELISA, capture of heparin by immobilized RPSA derivative; format: binding, murine; details: 25°C
[13] = biological target: interaction between RPSA-(225–295) and laminin (Mus musculus, UniProt P02468+P02469+P19137); experiment: Competition ELISA, inhibition constant Ki of heparin; format: binding, murine; details: read-out: constant of inhibition (Ki); 25°C, buffer C, laminin 5 μg/ml, immobilized RPSA-(225–295)
[14] = biological target: T3, RPSA-(2–209); experiment: Indirect ELISA, capture of heparin by immobilized RPSA derivative; format: binding, murine; details: 25°C, half-saturation
[15] = biological target: T5, RPSA-(210–295); experiment: as above; format: binding, murine; details: 25°C
[16] = biological target: capture of laminin by immobilized RPSA-(2–220) (Mus musculus, UniProt P14206); format: binding, murine; details: EC50 smaller than K1/2
[17] = biological target: T1, RPSA-(2–295); experiment: Indirect ELISA, capture of heparin by immobilized RPSA derivative; format: binding, murine; details: 25°C
[18] = biological target: T4, RPSA-(2–220); experiment: as above; format: binding, murine; details: 25°C, half-saturation, listed as Heparin
[19] = test system: 67LR form of RPSA, purified from human cancer cells; details: 25°C, surface plasmon resonance; cited from earlier work
[20] = biological target: T1, RPSA-(2–295); experiment: Fluorimetric titration of RPSA derivative with EGCG; format: binding, murine
[21] = biological target: RPSA-(2–209) W176A (Mus musculus, UniProt P14206, W176A); experiment: Fluorimetric titration of mutant RPSA-; format: binding, murine
[22] = biological target: T4, RPSA-(2–220); experiment: Fluorimetric titration of RPSA derivative with EGCG; format: binding, murine; details: read-out: KD(EGCG); 25°C, PBS, equilibrium in solution, spectrofluorimetry
[23] = biological target: T2, RPSA-(225–295); experiment: as above; format: binding, murine; details: 25°C
[24] = biological target: T3, RPSA-(2–209); experiment: as above; format: binding, murine
[25] = biological target: RPSA-(2–209) W195A (Mus musculus, UniProt P14206, W195A); experiment: Fluorimetric titration of mutant RPSA-; format: binding, murine
[26] = biological target: T5, RPSA-(210–295); experiment: Fluorimetric titration of RPSA derivative with EGCG; format: binding, murine; details: 25°C
[27] = read-out: KD(EGCG), 25°C, PBS, equilibrium in solution, spectrofluorimetry
[28] = uncorrected fluorescence, consistent with tryptophanamide control

Compound: laminin: laminin from mouse EHS (Engelbreth-Holm-Swarm) sarcoma, component of the extracellular matrix
- Kd [1]: 300 nM
- Kd [2]: 700 nM
- Kd [3]: 52 nM
- KD of laminin, full-length RPSA-(2–295) relative to N- or C-domain ([4]; higher for full-length): 2 fold
- Kd ([4]; read-out: KD(Laminin), 25°C, buffer C, equilibrium in solution, competition ELISA): 666 ± 33 nM
- Kd ([5]; 4 °C): 2 nM
- Kd ([5]; 20 °C): 2 nM
- Kd [6]: 1700 nM
- Kd [7]: 344 ± 50 nM
- Kd [8]: 273 ± 37 nM
- Kd [9]: 691 ± 98 nM
- Kd [10]: 300 nM
- Kd [11]: 374 ± 54 nM

Compound: heparin sodium salt
- heparin binding (in words) [12]: did not bind
- K1/2(Heparin) ([12]; half-saturation): ≫2 μM
- Ki [13]: 16.1 ± 0.7 nM
- K1/2(Heparin) [14]: 1.43 µM
- K1/2(Heparin) ([14]; listed as Heparin): 1.43 ± 0.06 µM
- heparin binding (in words) [15]: did not bind
- K1/2(Heparin) ([15]; half-saturation): ≫2 μM
- EC50 relative to K1/2 of heparin for RPSA-(2–220) [16]: 130 fold
- heparin binding (in words) [17]: did not bind
- K1/2(Heparin) ([17]; half-saturation): ≫4 μM
- K1/2(Heparin) [18]: 4.4 µM and 4.36 ± 0.28 µM

Compound: O=C(O[C@@H]1Cc2c(O)cc(O)cc2O[C@@H]1c1cc(O)c(O)c(O)c1)c1cc(O)c(O)c(O)c1 [EGCG, (−)-epigallocatechin-3-gallate]
- Kd [1]: 100 nM
- KD (EGCG and 67LR), ratio kd/ka [19]: 39.9 nM
- KD of EGCG, full-length RPSA-(2–295) relative to N-domain ([20]; higher for full-length): 4 fold
- Kd [20, 27]: 399 ± 101 nM
- decrease of free energy of interaction (ΔΔG) with EGCG ([21]; W176A vs parental RPSA-(2–209)): 0.4 ± 0.1 kcal/mol
- Kd ([21]; read-out: KD (EGCG), 25°C, W176A mutant of RPSA-(2–209)): 186 ± 42 nM
- Kd [22]: 130 ± 37 nM
- EGCG binding (in words) ([23]; spectrofluorimetry): did not bind
- [EGCG]1/2 (concentration of half-absorption, Beer's law fitted to F) [23, 28]: 43 µM
- KD of EGCG with RPSA-(2–209) relative to literature KD with 67LR ([24]; higher than 39.9 nM of ref 46): 2.5 fold
- Kd [24, 27]: 99 ± 7 nM
- decrease of free energy of interaction (ΔΔG) with EGCG ([25]; W195A vs parental RPSA-(2–209)): 0.4 ± 0.1 kcal/mol
- Kd ([25]; read-out: KD (EGCG), 25°C, W195A mutant of RPSA-(2–209)): 196 ± 54 nM
- EGCG binding (in words) ([26]; spectrofluorimetry): did not bind
- [EGCG]1/2 (concentration of half-absorption, Beer's law fitted to F) [26, 28]: 48 µM
